Laboratory results: PubChem BioAssay AID2060494 (Molecular Pharmacology Branch, DTP, NCI, 2025)

System: 435261-313-R-J1-PDC complex spheroid viability
Experiment: Anticancer human tumor 435261-313-R-J1-PDC patient-derived colon adenocarcinoma cell line growth inhibition [GQUAD]
Conditions: for IC50: curve of first compound; for viability, T/C: stronger effect = lower value
Procedure, shortened: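 Multi-cell-type spheroids of tumor cells with HUVEC and mesenchymal stem cells, treated with drug combinations. Concentrations descend in half-log steps from near clinical Cmax, or from 10 microM where Cmax is unknown; viability read-out.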
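Also: spheroids exposed to the agents for seven days before readout.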
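For viability, T/C in this document: percent of vehicle control viability with DMSO wells as 100%.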

## COc1cc(C2c3cc4c(cc3C(OC3OC5COC(C)OC5C(O)C3O)C3COC(=O)C23)OCO4)cc(OC)c1O (configuration not stated) + CN(C)c1ccc(Nc2c3ccc(NC(=O)CCN4CCCC4)cc3nc3cc(NC(=O)CCN4CCCC4)ccc23)cc1
Second compound 0.0316 µM
  IC50: > 10 µM
Second compound 0.1 µM
  IC50: > 10 µM
Second compound 0.316 µM
  IC50: > 10 µM
Second compound 1 µM
  IC50: > 10 µM
Second compound 3.16 µM
  IC50: > 10 µM
Second compound 10 µM
  IC50: 0.0704 µM
Second compound 0.0316 µM, first compound 0.0316 µM
  viability, T/C: 93.5%
Second compound 0.0316 µM, first compound 0.1 µM
  viability, T/C: 117%
Second compound 0.0316 µM, first compound 0.316 µM
  viability, T/C: 77.8%
Second compound 0.0316 µM, first compound 1 µM
  viability, T/C: 74.4%
Second compound 0.0316 µM, first compound 3.16 µM
  viability, T/C: 75.9%
Second compound 0.0316 µM, first compound 10 µM
  viability, T/C: 61.2%
Second compound 0.1 µM, first compound 0.0316 µM
  viability, T/C: 81.8%
Second compound 0.1 µM, first compound 0.1 µM
  viability, T/C: 87.3%
Second compound 0.1 µM, first compound 0.316 µM
  viability, T/C: 74.8%
Second compound 0.1 µM, first compound 1 µM
  viability, T/C: 80.7%
Second compound 0.1 µM, first compound 3.16 µM
  viability, T/C: 82.1%
Second compound 0.1 µM, first compound 10 µM
  viability, T/C: 74.1%
Second compound 0.316 µM, first compound 0.0316 µM
  viability, T/C: 100%
Second compound 0.316 µM, first compound 0.1 µM
  viability, T/C: 95.2%
Second compound 0.316 µM, first compound 0.316 µM
  viability, T/C: 65.1%
Second compound 0.316 µM, first compound 1 µM
  viability, T/C: 71%
Second compound 0.316 µM, first compound 3.16 µM
  viability, T/C: 91.6%
Second compound 0.316 µM, first compound 10 µM
  viability, T/C: 74.4%
Second compound 1 µM, first compound 0.0316 µM
  viability, T/C: 78.9%
Second compound 1 µM, first compound 0.1 µM
  viability, T/C: 91.4%
Second compound 1 µM, first compound 0.316 µM
  viability, T/C: 74.3%
Second compound 1 µM, first compound 1 µM
  viability, T/C: 76.4%
Second compound 1 µM, first compound 3.16 µM
  viability, T/C: 71.1%
Second compound 1 µM, first compound 10 µM
  viability, T/C: 57.1%
Second compound 3.16 µM, first compound 0.0316 µM
  viability, T/C: 62.6%
Second compound 3.16 µM, first compound 0.1 µM
  viability, T/C: 69.2%
Second compound 3.16 µM, first compound 0.316 µM
  viability, T/C: 65.5%
Second compound 3.16 µM, first compound 1 µM
  viability, T/C: 55.2%
Second compound 3.16 µM, first compound 3.16 µM
  viability, T/C: 62.4%
Second compound 3.16 µM, first compound 10 µM
  viability, T/C: 45.7%
Second compound 10 µM, first compound 0.0316 µM
  viability, T/C: 63%
Second compound 10 µM, first compound 0.1 µM
  viability, T/C: 42.4%
Second compound 10 µM, first compound 0.316 µM
  viability, T/C: 37.9%
Second compound 10 µM, first compound 1 µM
  viability, T/C: 29%
Second compound 10 µM, first compound 3.16 µM
  viability, T/C: 27.1%
Second compound 10 µM, first compound 10 µM
  viability, T/C: 26.4%
